{
  "source": "patent US20090018162A1",
  "about": "“USE OF 6-(3-CHLORO-2-FLUOROBENZYL)-1-[(2S)-1-HYDROXY-3-METHYLBUTAN-2-YL]-7-METHOXY-4-OXO-1,4-DIHYDROQUINOLINE-3-CARBOXYLIC ACID OR SALT THEREOF FOR TREATING RETROVIRUS INFECTION” (priority 2006, published 2009)",
  "key": {"[1]": {"test": "MTS cytotoxicity in monocyte/macrophage cultures", "assay_type": "cell-based", "conditions": "human, TC50", "method": "(§1) Anti-HIV Efficacy Evaluation in Fresh Human Monocyte/Macrophage. Monocytes/macrophages were allowed to adhere to the interior 60 wells of a 96 well flat bottomed plate for 2 to 18 hours at 37° C., 5% CO2. Following 6 to 14 days in culture, the monocyte/macrophage cultures were washed 3 times to remove any non-adherent cells and serially diluted test compounds were added followed by the addition of a pre-titered amount of HIV. Cultures were washed a final time by media removal 24 hours post infection, fresh compound added and the cultures continued for an additional six days. […] At assay termination, virus replication was measured by collecting cell-free supernatant samples which were analyzed for HIV p24 antigen content using a commercially available p24 ELISA assay (Coulter). […] MTS staining for PBMC viability to measure cytotoxicity. […] The mitochondrial enzymes of metabolically active cells metabolize MTS to yield a soluble formazan product. This allows the rapid quantitative analysis of cell viability and compound cytotoxicity. […] At termination of the assay, 20 μL of MTS reagent was added per well. The microtiter plates were then incubated 4-6 hrs at 37° C. The incubation intervals were chosen based on empirically determined times for optimal dye reduction. […] Data analysis."}, "[2]": {"system": "human monocytes/macrophages", "test": "MTS cytotoxicity in monocyte/macrophage cultures", "assay_type": "cell-based", "conditions": "7 days", "method": "as §1"}, "HIV-1 clinical isolates [3]": {"system": "HIV-1 clinical isolates"}, "[4]": {"system": "HIV-1 macrophage-tropic virus strains"}, "HIV-2 CDC 310319 [5]": {"system": "HIV-2 CDC 310319", "conditions": "HIV-2 CDC 310319 in PBMCs"}, "human PBMCs [6]": {"system": "human PBMCs", "conditions": "7 days"}, "in vitro": {"test": "in vitro", "conditions": "human"}, "HIV-1 clinical isolates [7]": {"system": "HIV-1 clinical isolates", "test": "microbe, parasite or virus in culture", "conditions": "Human immunodeficiency virus 1, PBMC"}, "[8]": {"system": "HIV-1 macrophage-tropic virus strains", "test": "microbe, parasite or virus in culture", "conditions": "in Homo sapiens"}, "HIV-2 CDC 310319 [9]": {"system": "HIV-2 CDC 310319", "test": "microbe, parasite or virus in culture", "conditions": "Human immunodeficiency virus 2, PBMC"}, "human PBMCs [10]": {"system": "human PBMCs", "test": "MTS staining for PBMC viability (cytotoxicity)", "conditions": "read-out: TC50, PBMCs, MTS"}, "[11]": {"system": "drug-resistant HIV-1 isolates", "test": "Anti-HIV efficacy in fresh human PBMCs, drug-resistant HIV-1 isolates", "conditions": "for pIC50: Human immunodeficiency virus 1, PBMC, in Homo sapiens"}},
  "note": "pIC50: −log10 of the molar value. Counter-ions that a name gives are not always drawn. Like-named read-outs stand apart in the source and are kept apart here.",
  "data": [
    {"smiles": "Cc1c(O)cccc1C(=O)N[C@@H](CSc1ccccc1)[C@H](O)CN1C[C@H]2CCCC[C@H]2C[C@H]1C(=O)NC(C)(C)C", "note": "[Nelfinavir, nelfinavir mesylate]", "values": [
      {"measurement": "CC50 at 7 days", "setting": "[1]", "result": "> 10000", "unit": "nM"},
      {"measurement": "CC50", "setting": "[2]", "result": "> 10000", "unit": "nM"},
      {"measurement": "TI (TC50/IC50)", "setting": "HIV-1 clinical isolates [3]; HIV-1 96USHIPS7 in PBMCs", "result": ">38.8"},
      {"measurement": "TI (TC50/IC50)", "setting": "HIV-1 clinical isolates [3]; HIV-1 BFC01 in PBMCs", "result": ">1010.1"},
      {"measurement": "TI (TC50/IC50)", "setting": "HIV-1 clinical isolates [3]; HIV-1 BR/92/021 in PBMCs", "result": ">14.2"},
      {"measurement": "TI (TC50/IC50)", "setting": "HIV-1 clinical isolates [3]; HIV-1 BR/92/025 in PBMCs", "result": ">9901.0"},
      {"measurement": "TI (TC50/IC50)", "setting": "HIV-1 clinical isolates [3]; HIV-1 BR/93/017 in PBMCs", "result": ">487.8"},
      {"measurement": "TI (TC50/IC50)", "setting": "HIV-1 clinical isolates [3]; HIV-1 BR/93/020 in PBMCs", "result": ">61.0"},
      {"measurement": "TI (TC50/IC50)", "setting": "HIV-1 clinical isolates [3]; HIV-1 BR/93/022 in PBMCs", "result": ">49.8"},
      {"measurement": "TI (TC50/IC50)", "setting": "HIV-1 clinical isolates [3]; HIV-1 CMU 02 in PBMCs", "result": ">44.1"},
      {"measurement": "TI (TC50/IC50)", "setting": "HIV-1 clinical isolates [3]; HIV-1 JV 1083 in PBMCs", "result": ">71.4"},
      {"measurement": "TI (TC50/IC50)", "setting": "HIV-1 clinical isolates [3]; HIV-1 RW/92/016 in PBMCs", "result": ">74.6"},
      {"measurement": "TI (TC50/IC50)", "setting": "HIV-1 clinical isolates [3]; HIV-1 UG/92/046 in PBMCs", "result": ">36.1"},
      {"measurement": "TI (TC50/IC50)", "setting": "[4]; HIV-1 ADA in macrophages", "result": ">221.2"},
      {"measurement": "TI (TC50/IC50)", "setting": "[4]; HIV-1 Ba-L in macrophages", "result": ">275.5"},
      {"measurement": "TI (TC50/IC50)", "setting": "HIV-2 CDC 310319 [5]", "result": ">62.1"},
      {"measurement": "CC50", "setting": "human PBMCs [6]", "result": "> 1000", "unit": "nM"},
      {"measurement": "CC50", "setting": "in vitro", "result": "> 1000", "unit": "nM"},
      {"measurement": "CC50 at 7 days", "setting": "in vitro", "result": "> 1000", "unit": "nM"},
      {"measurement": "pIC50", "setting": "HIV-1 clinical isolates [7]; HIV-1 96USHIPS7 (subtype /B, R5) in PBMCs", "result": 7.59},
      {"measurement": "pIC50", "setting": "HIV-1 clinical isolates [7]; HIV-1 BR/92/021 (subtype B/B, R5) in PBMCs", "result": 7.15},
      {"measurement": "pIC50", "setting": "HIV-1 clinical isolates [7]; HIV-1 BR/93/017 (subtype B/B, R5) in PBMCs", "result": 8.69},
      {"measurement": "pIC50", "setting": "HIV-1 clinical isolates [7]; HIV-1 BR/93/020 (subtype F/F, R5/X4) in PBMCs", "result": 7.79},
      {"measurement": "pIC50", "setting": "HIV-1 clinical isolates [7]; HIV-1 BR/93/022 (subtype /B, R5) in PBMCs", "result": 7.70},
      {"measurement": "pIC50", "setting": "HIV-1 clinical isolates [7]; HIV-1 CMU 02 (subtype /EA, X4) in PBMCs", "result": 7.64},
      {"measurement": "pIC50", "setting": "HIV-1 clinical isolates [7]; HIV-1 JV 1083 (subtype /G, R5) in PBMCs", "result": 7.85},
      {"measurement": "pIC50", "setting": "HIV-1 clinical isolates [7]; HIV-1 RW/92/016 (subtype A/A, R5) in PBMCs", "result": 7.87},
      {"measurement": "pIC50", "setting": "HIV-1 clinical isolates [7]; HIV-1 UG/92/046 (subtype D/D, X4) in PBMCs", "result": 7.56},
      {"measurement": "pIC50", "setting": "[8]; Human immunodeficiency virus 1, BAL, Macrophage, HIV-1 Ba-L in macrophages", "result": 7.44},
      {"measurement": "pIC50", "setting": "[8]; Human immunodeficiency virus 1, Macrophage, HIV-1 ADA in macrophages", "result": 7.34},
      {"measurement": "pIC50", "setting": "HIV-2 CDC 310319 [9]", "result": 7.79},
      {"measurement": "CC50", "setting": "human PBMCs [10]; MDR 807 assay", "result": "> 1000", "unit": "nM"},
      {"measurement": "CC50", "setting": "human PBMCs [10]; MDR 1385 assay", "result": "> 1000", "unit": "nM"},
      {"measurement": "CC50", "setting": "human PBMCs [10]; MDR 3761 assay", "result": "> 1000", "unit": "nM"},
      {"measurement": "TI (TC50/IC50)", "setting": "[11]; HIV-1 52-52 in PBMCs", "result": ">10.5"},
      {"measurement": "TI (TC50/IC50)", "setting": "[11]; HIV-1 144-44 in PBMCs", "result": ">6.05"},
      {"measurement": "TI (TC50/IC50)", "setting": "[11]; HIV-1 1064-52 in PBMCs", "result": ">1.19"},
      {"measurement": "TI (TC50/IC50)", "setting": "[11]; HIV-1 MDR 807 in PBMCs", "result": ">7.41"},
      {"measurement": "pIC50", "setting": "[11]; HIV-1 52-52 (protease-inhibitor resistant) in PBMCs", "result": 7.02},
      {"measurement": "pIC50", "setting": "[11]; against several viruses (e.g., MDR 1385, MDR 3761) in PBMCs", "result": "< 6.00"},
      {"measurement": "pIC50", "setting": "[11]; multi-drug-resistant HIV-1 MDR 769 in PBMCs", "result": "< 6.00"},
      {"measurement": "pIC50", "setting": "[11]; multi-drug-resistant HIV-1 MDR 807 in PBMCs", "result": 6.87},
      {"measurement": "pIC50", "setting": "[11]; multi-drug-resistant HIV-1 MDR 1385 in PBMCs", "result": "< 6.00"},
      {"measurement": "pIC50", "setting": "[11]; multi-drug-resistant HIV-1 MDR 3761 in PBMCs", "result": "< 6.00"}
    ]}
  ]
}
